Data from paper PMC8645421 (Computational and Structural Biotechnology Journal, 2021).

Tests used:
Conditions in all cases: read-out: Km (mM) ^3; 50 mM Britton and Robinson buffer, pH 7.0, 30 °C
T0191 [1] = experiment: HPAEC-PAD; format: biochemical, uncultured Marinifilaceae bacterium
T0193 [2] = experiment: HPAEC-PAD; format: biochemical, uncultured Flavobacteriaceae bacterium
T0215 [3] = experiment: HPAEC-PAD; format: biochemical, uncultured Marinifilaceae bacterium
T0218 = experiment: pNP release at […] nm; format: biochemical, metagenome
T0217 = experiment: pNP release at […] nm; format: biochemical, metagenome
T0220 = experiment: pNP release at […] nm; format: biochemical, metagenome
T0216 = experiment: pNP release at […] nm; format: biochemical, uncultured Flavobacteriaceae bacterium
T0191 [4] = experiment: pNP release at […] nm; format: biochemical, uncultured Marinifilaceae bacterium
T0193 [5] = experiment: pNP release at […] nm; format: biochemical, uncultured Flavobacteriaceae bacterium
T0201 = experiment: pNP release at […] nm; format: biochemical, metagenome
T0215 [6] = experiment: pNP release at […] nm; format: biochemical, uncultured Marinifilaceae bacterium
T0199 = experiment: pNP release at […] nm; format: biochemical, metagenome
T0207 = experiment: pNP release at […] nm; format: biochemical, Osedax
T0204 = experiment: pNP release at […] nm; format: biochemical, metagenome

Question: Which results are given for `CC(=O)N[C@H]1[C@H]([C@H](O)[C@H](O)CO)O[C@@](O[C@H]2[C@@H](O)[C@@H](CO)O[C@@H](O[C@H]3[C@H](O)[C@@H](O)C(O)O[C@@H]3CO)[C@@H]2O)(C(=O)O)C[C@@H]1O` (stereo partly drawn) [3-Sialyllactose]?
Answer: Km (T0191 [1]): 0.031 ± 0.001 mM; Km (T0193 [2]): 0.082 ± 0.06 mM

Question: Which Km (T0191 [1]) does the source give for `CC(=O)N[C@H]1[C@H]([C@H](O)[C@H](O)CO)O[C@@](OC[C@H]2O[C@@H](O[C@H]3[C@H](O)[C@@H](O)C(O)O[C@@H]3CO)[C@H](O)[C@@H](O)[C@H]2O)(C(=O)O)C[C@@H]1O` (stereo partly drawn) [6-Sialyllactose] here?
Answer: 0.053 ± 0.001 mM

Question: How did the Km (T0215 [3]) turn out when `OC[C@H]1O[C@H](O[C@H]2[C@@H](O)[C@@H](CO)OC(O)[C@@H]2O)[C@H](O)[C@@H](O)[C@H]1O` (stereo partly drawn) [Galactose-α-1,3-galactose] was run?
Answer: 0.048 ± 0.009 mM

Question: `CCCCCCCCCCCCC/C=C/[C@@H](O)[C@@H](N)CO[C@@H]1O[C@H](CO)[C@@H](O[C@@H]2O[C@H](CO)[C@H](O[C@H]3O[C@H](CO)[C@H](O)[C@H](O)[C@H]3O)[C@H](O)[C@H]2O)[C@H](O)[C@H]1O` [Globotriaosylsphingosine] was tested. Which Km (T0215 [3]) did it give?
Answer: 0.058 ± 0.007 mM

Question: How did the Km (T0218) turn out when `CC(=O)N[C@H]1[C@H](Oc2ccc([N+](=O)[O-])cc2)O[C@H](CO)[C@H](O)[C@@H]1O` [pNP-NAβGal] was run?
Answer: 0.326 ± 0.037 mM

Question: Which Km (T0217) does the source give for `CC(=O)N[C@H]1[C@H](Oc2ccc([N+](=O)[O-])cc2)O[C@H](CO)[C@@H](O)[C@@H]1O` [pNP-NAβGlu] here?
Answer: 0.028 ± 0.012 mM

Question: And the Km (T0220)?
Answer: 0.042 ± 0.004 mM

Question: And the Km (T0218)?
Answer: 0.134 ± 0.015 mM

Question: What about the Km (T0216) of the same compound?
Answer: 0.025 ± 0.006 mM

Question: With `CC(=O)N[C@H]1[C@H]([C@H](O)[C@H](O)CO)O[C@@](Oc2ccc([N+](=O)[O-])cc2)(C(=O)O)C[C@@H]1O` [pNP-Neu5Ac] as the compound, how does the Km (T0191 [4]) read?
Answer: 0.18 ± 0.03 mM

Question: What about the Km (T0193 [5]) of the same compound?
Answer: 0.55 ± 0.17 mM

Question: What does the source list for `O=[N+]([O-])c1ccc(O[C@H]2O[C@H](CO)[C@H](O)[C@H](O)[C@H]2O)cc1` [pNP-αGal]?
Answer: Km (T0201): 6.22 ± 0.93 mM; Km (T0215 [6]): 0.062 ± 0.008 mM

Question: How did the Km (T0199) turn out when `C[C@@H]1O[C@@H](Oc2ccc([N+](=O)[O-])cc2)[C@H](O)[C@H](O)[C@H]1O` [pNP-αRham] was run?
Answer: 1.08 ± 0.15 mM

Question: With `C[C@H]1O[C@@H](Oc2ccc([N+](=O)[O-])cc2)[C@H](O)[C@@H](O)[C@H]1O` [pNP-β-Fuc] as the compound, how does the Km (T0207) read?
Answer: 0.0118 ± 0.003 mM

Question: How did the Km (T0207) turn out when `O=[N+]([O-])c1ccc(O[C@@H]2O[C@H](CO)[C@H](O)[C@H](O)[C@H]2O)cc1` [pNP-βGal] was run?
Answer: 0.199 ± 0.032 mM

Question: How did the Km (T0204) turn out when `O=[N+]([O-])c1ccc(O[C@@H]2O[C@H](CO)[C@@H](O)[C@H](O)[C@@H]2O)cc1` [pNP-βMan] was run?
Answer: 0.127 ± 0.036 mM
